Laboratory results published in article PMC4869360, “An allosteric role for receptor activity-modifying proteins in defining GPCR pharmacology” (Cell Discovery, 2016).
Substitutions are numbered along the chain they refer to.

Experiments:
Format in all cases: cell-based
Conditions in all cases: Cos-7, mean±s.e.m., read-out: pEC50 mutant (converted)
[1] = target: T1, CT(a) receptor, W79A mutant (Homo sapiens, UniProt P30988, W79A); assay: cAMP assay, W79A CT(a)
T1 sequence (P30988 25-474 W79A): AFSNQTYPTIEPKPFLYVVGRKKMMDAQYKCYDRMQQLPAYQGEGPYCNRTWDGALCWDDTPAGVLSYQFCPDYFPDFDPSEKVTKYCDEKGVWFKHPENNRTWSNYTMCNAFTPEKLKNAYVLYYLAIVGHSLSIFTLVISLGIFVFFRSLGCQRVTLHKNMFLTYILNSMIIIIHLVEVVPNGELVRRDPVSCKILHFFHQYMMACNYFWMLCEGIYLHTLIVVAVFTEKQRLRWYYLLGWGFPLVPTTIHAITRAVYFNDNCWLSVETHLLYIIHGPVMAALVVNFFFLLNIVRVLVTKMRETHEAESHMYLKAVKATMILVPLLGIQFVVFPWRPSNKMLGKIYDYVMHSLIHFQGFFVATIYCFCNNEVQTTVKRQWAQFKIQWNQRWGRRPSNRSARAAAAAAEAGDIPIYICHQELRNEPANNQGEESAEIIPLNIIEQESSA
Text: (§1) This is the insert-negative form of the receptor and is referred to as hCT(a), to comply with International Union of Pharmacology guidelines. Myc tagged RAMP1 and untagged RAMP3 constructs were used for AMY receptor experiments.
(§2) Primers were purchased from Integrated DNA Technologies Ltd (Coralville, IA, USA). Kapa HiFi readymix (Kapa Biosystems, Wilmington, MA, USA) or Primestar HS enzymes (TaKaRa Bio, Kyoto, Japan) were substituted for Pfu polymerase.
(§3) After stimulation the reaction was stopped by removing media and adding 50 μl per well of ice-cold absolute ethanol. Plates were stored at −30 °C for up to 4 days before the measurement of cAMP was performed.

[2] = target: T2, CT(a) receptor, H121A mutant (Homo sapiens, UniProt P30988, H121A); assay: cAMP assay, H121A CT(a)
T2 sequence (P30988 25-474 H121A): T1 sequence (P30988 25-474 W79A) with A55W, H97A
Text: as §1, §2, §3

[3] = target: T3, CT(a) receptor, Y131A mutant (Homo sapiens, UniProt P30988, Y131A); assay: cAMP assay, Y131A CT(a)
T3 sequence (P30988 25-474 Y131A): T1 sequence (P30988 25-474 W79A) with A55W, Y107A
Text: as §1, §2, §3

[4] = target: T4, CT(a) receptor, F99A mutant (Homo sapiens, UniProt P30988, F99A); assay: cAMP assay, F99A CT(a)
T4 sequence (P30988 25-474 F99A): T1 sequence (P30988 25-474 W79A) with A55W, F75A
Text: as §1, §2, §3

[5] = target: T5, CT(a) receptor, D101A mutant (Homo sapiens, UniProt P30988, D101A); assay: cAMP assay, D101A CT(a)
T5 sequence (P30988 25-474 D101A): T1 sequence (P30988 25-474 W79A) with A55W, D77A
Text: as §1, §2, §3

EC50 [1]: 447 nM | EC50 [2]: 263 nM | EC50 [3]: 309 nM | EC50 [4]: […] | EC50 [5]: 309 nM
Structure (SMILES): CC(C)C[C@H](NC(=O)CNC(=O)[C@H](C)NC(=O)[C@H](CC(C)C)NC(=O)[C@H](CCCNC(=N)N)NC(=O)[C@H](Cc1cnc[nH]1)NC(=O)[C@@H](NC(=O)[C@@H](NC(=O)[C@@H]1CSSC[C@H](NC(=O)[C@H](C)N)C(=O)N[C@@H](CC(=O)O)C(=O)N[C@@H]([C@@H](C)O)C(=O)N[C@@H](C)C(=O)N[C@@H]([C@@H](C)O)C(=O)N1)C(C)C)[C@@H](C)O)C(=O)N[C@@H](CC(C)C)C(=O)N[C@@H](CO)C(=O)N[C@@H](CCCNC(=N)N)C(=O)N[C@@H](CO)C(=O)NCC(=O)NCC(=O)N[C@H](C(=O)N[C@H](C(=O)N[C@@H](CCCCN)C(=O)N[C@@H](CC(N)=O)C(=O)N[C@@H](CC(N)=O)C(=O)N[C@@H](Cc1ccccc1)C(=O)N[C@H](C(=O)N1CCC[C@H]1C(=O)N[C@H](C(=O)N[C@@H](CC(N)=O)C(=O)N[C@H](C(=O)NCC(=O)N[C@@H](CO)C(=O)N[C@@H](CCCCN)C(=O)N[C@@H](C)C(=O)N[C@@H](Cc1ccccc1)C(N)=O)C(C)C)[C@@H](C)O)C(C)C)C(C)C)C(C)C [hαCGRP, human αCGRP]
